Experimental data from US20250120928A1 (University of Maryland, Baltimore, priority 2021, published 2025).

Assays:
[1] = test system: LPS-induced endotoxemia mouse model; assay: Plasma cytokine analysis in the LPS-induced endotoxemia mouse model; assay type: in vivo, male C57BL/6J mice; conditions: 50 mg/kg i.p. 3 hours before 20 mg/kg LPS i.p.; blood 3 hours post-LPS
Procedure: Terminal cardiac blood draws from the left ventricle occurred 3 hours post LPS injections using a 25 g needle and 1 mL syringe into an EDTA coated lavender blood collection tube (BD Medical, Franklin Lakes, NJ). Blood samples were centrifuged at 1000×g for 10 minutes within 30 minutes of collection. Plasma was extracted and diluted 10,000-fold for ELISA IL-6 measurement and diluted 10-fold for TNFα measurements.
Terminal cardiac blood draws from the left ventricle occurred 3 hours post LPS injections using a 25 g needle and 1 mL syringe into an EDTA coated lavender blood collection tubes (BD Medical, Franklin Lakes, NJ). Blood samples were centrifuged at 1000×g for 10 minutes within 30 minutes of collection. Plasma was extracted and diluted 10,000-fold for ELISA IL-6 measurement and diluted 10-fold for TNFα measurements. MAGPIX Luminex bead-based multiplex ELISA (Thermo Fisher Scientific, Waltham, MA) of mouse plasma (diluted 100-fold) measured for 26 various cytokines and chemokines and data was analyzed using the Luminex xPONENT software (Millipore) as per manufacturer's instructions. The 26-plex panel include murine IL-1β, IL-2, IL-4, IL-5, IL-6, IL-9, IL-10, IL-12p70, IL-13, IL-17A (CTLA-8), IL-18, IL-22, IL-23, IL-27, GM-CSF, IFNγ, TNFα, MCP-1 (CCL2), MIP-1α (CCL3), MIP-10 (CCL4), RANTES (CCL5), MCP-3 (CCL7), Eotaxin (CCL11), GROα (CXCL1), MIP-2a (CXCL2), and IP-10 (CXCL10).

[2] = test system: BMMØs; assay type: cell-based
Procedure: (§1) Three hours later, cells were stimulated with 100 ng/mL LPS. After 48 hours, cells were lifted using Versene and washed with cold PBS supplemented with 1% FBS and 0.4% 0.5 M EDTA (Quality Biological, Gaithersburg, MD). FcR blocking was performed with purified anti-mouse CD16/32 antibody (#101301) (Biolegend, San Diego, CA) prior to staining with Annexin V-FITC and propidium iodide kit (#640914) (BioLegend, San Diego, CA) for apoptosis and cell death. Cell staining was conducted according to BioLegend protocols for flow cytometry. Flow cytometry data were collected using a Becton Dickinson LSR II or Becton Dickinson Canto II flow cytometer. Flow plots and data processing was done using FCS Express 7 Flow Cytometry De Novo Software (De Novo, Glendale, CA).
as §1, with “After” for “Three hours later, cells were stimulated with 100 ng/mL LPS. After”

[3] = test system: B cells (B220+) isolated from splenocytes; assay: Splenocyte apoptosis and cell death by AV/PI flow cytometry, B cells; assay type: cell-based
Procedure: Splenocytes were isolated from spleens as previously described. Briefly, 5-12-week C57BL/6J female mice were euthanized and the spleen was isolated. The spleen was processed into single-cell suspensions using a 40 μm cell strainer and flushed with cold PBS supplemented with 1% FBS and 0.4% 0.5 M EDTA (Quality Biological, Gaithersburg, MD). Erythrocytes were lysed with ACK lysis buffer (Quality Biological, Gaithersburg, MD). […] Subsequently, splenocytes were stimulated with 100 ng/mL LPS for 24 hours. Splenocytes were then washed with cold PBS supplemented with 1% FBS and 0.4% 0.5 M EDTA and FcR blocked, as previously mentioned. Splenocytes were then stained with purified anti-mouse PE/Cyanine7 CD45R/B220 antibody (#103222) (BioLegend, San Diego, CA) for the B cell population. SAHA and SAHA-OH apoptosis and cell death were then assessed using the FITC-AV Apoptosis Detection Kit with PI via flow cytometry, as previously mentioned. Flow cytometry data were collected using a Cytex Aurora flow cytometer. Flow plots and data processing was done using FCS Express 7 Flow Cytometry De Novo Software (De Novo, Glendale, CA).

[4] = test system: BMMØs; assay: Western blot analysis of acetyl-histone H3 and acetyl-α-tubulin; conditions: 10 μM, unstimulated BMMØs, 4 and 9 hours
[5] = test system: spleen and liver; assay: Hematoxylin and eosin (H&E) histology of spleen and liver, LPS-induced endotoxemia mice; assay type: in vivo, male C57BL/6J mice; conditions: 50 mg/kg i.p. 3 hours before 20 mg/kg LPS; 3 hours post-LPS
Procedure: The differences in tissue architecture of liver and spleen were assessed using the same cohort of mice as the cytokine analysis at 3 hours post-LPS administration. Prior to tissue harvest, whole-body perfusion was performed post-cardiac blood draw by slowly flushing 10 mL of 37° C. PBS through the left ventricle of the heart while a cut in the right atrium allowed for the flow of blood. The liver and spleen were harvested, placed into tissue cassettes (VWR, Radnor, PA), and fixed overnight in 10% buffered formalin (Sigma-Aldrich, St. Louis, MO). The following day, the organs were paraffin-embedded and sectioned into 5 μm slices. Slides were stained for H&E to define histological architecture using standard procedures.
The differences in tissue architecture of liver and spleens were assessed at 3 hours post-LPS administration. Prior to tissue harvest, whole body perfusion was performed by slowly flushing 10 mL of 37° C. PBS through the left ventricle of the heart while a cut in the right atrium allowed for the flow of blood. The liver and spleen were harvested, placed into tissue cassettes, and fixed overnight in 10% buffered formalin. The following day, the organs were paraffin embedded and sectioned in 5 μm slices. Slides were stained for H&E to define histological architecture using standard procedures.

[6] = test system: LPS-stimulated bone marrow macrophages (BMMØ); assay: BMMØ cytokine secretion following LPS stimulation (ELISA, Luminex); assay type: cell-based, C57BL/6J mice
Procedure: (§2) Three hours later, cells were stimulated with 100 ng/mL LPS. After 48 hours, cell culture supernatants were collected and analyzed by enzyme-linked immunosorbent assays (ELISA) (BioLegend, San Diego, CA) to measure murine IL-6 and TNFα. MAGPIX Luminex bead-based multiplex ELISA (Thermo Fisher Scientific, Waltham, MA) measured for 7 various cytokines and chemokines, and data were analyzed using the Luminex xPONENT software (Millipore) as per manufacturer's instructions. The 7-plex panel included murine IFNβ, IL-10, IL-6, IL-1β, MCP-1 (CCL2), TNFα, and GROα (CXCL1).
as §2, with “After” for “Three hours later, cells were stimulated with 100 ng/mL LPS. After”, “(Milli-pore)” for “(Millipore)”, “TL-6,” for “IL-6,”

[7] = test system: T cells (CD3+) from splenocytes; assay: Splenocyte apoptosis and cell death by AV/PI flow cytometry, T cells; assay type: cell-based; conditions: concentrations up to 30 μM
[8] = test system: HDAC1, 2, 3; conditions: comparison value for Tubastatin A; read-out: IC50 against HDAC1, 2, 3; cited from earlier work
[9] = 0-30 μM for 3 hours, then LPS 100 ng/mL 48 hours, ELISA

| SMILES | reduction of plasma IL-6 [1] | reduction of plasma TNFα [1] | apoptosis (AV+/PI−) over concentration ([2]; 0-30 μM) | viability (AV−/PI−) over concentration ([2]; 0-30 μM) | apoptosis (AV+/PI−) ([2]; 10 μM, 48 hours) | cellular viability (AV−/PI−) ([2]; 10 μM, 48 hours) | toxicity profile for the B cell population ([3]; 0-30 μM) | B cell death (AV+/PI+) ([3]; 10 μM, 24 hours) | B cell viability (AV−/PI−) ([3]; 10 μM, 24 hours) | acetylation of α-tubulin [4] | spleen tissue architecture (H&E) [5] | IL-6 cytokine secretion [6, 9] | TNFα cytokine secretion [6, 9] | MCP-1 cytokine secretions ([6]; 10 μM, 3 hours before 48-hour LPS) | secretion of IL-10 ([6]; 10 μM, 3 hours before 48-hour LPS, Luminex, SAHA compared to SAHA-OH) | toxicity for the T cell population [7] | IC50 [8] |
| --- | --- | --- | --- | --- | --- | --- | --- | --- | --- | --- | --- | --- | --- | --- | --- | --- | --- |
| O=C(CCCCCCC(=O)Nc1ccccc1)NO [SAHA, N^1-hydroxy-N^8-phenyloctanediamide, reference compound] | about 50% | about 50% | apoptosis induction | concentration-dependent viability reduction | 96.8% | 3.1% | concentration-dependent toxicity profiles | 54.8% | 9.5% | similarly resulted in the acetylation | moderate histological disorganization | concentration-dependent reduction | concentration-dependent reduction | non-significantly affected | increased secretion | minimal toxicity |  |
